Reference: patent US7879887B2, “α-amino acid derivatives and medicaments containing the same as an active ingredient” (Nissan Chemical Industries, Ltd., priority 2006, dated 2011)

Legend:
CDK2/Cyclin E complex = CDK2/Cyclin E complex (Homo sapiens, UniProt P24941); assay: In vitro kinase assay, CDK2/Cyclin E complex; type: biochemical; settings: recombinant protein (Upstate); read-out: CDK2/cyclinE IC50
Description: Inhibitory activity against Aurora A, CDK1/Cyclin B complex, CDK2/Cyclin E complex and CDK3/Cyclin E complex were measured by in vitro kinase assay using recombinant proteins.

[1] = system: colon carcinoma cell line SW620; assay: Cell proliferation inhibitory activity, SW620; type: cell-based, human; settings: Homo sapiens, SW-620, 96 h, cells counted 4 days later with Cell Counting Kit-8
How it was run: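 Read-out: Cell Counting Kit-8 cell counts taken 4 days after cells in medium were added to graded test-substance concentrations. Incubation was at 37° C under 5% CO2. IC50 values were based on vehicle wells set to 0% inhibition and wells lacking compound and cells set to 100%.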

Row | SMILES | IC50 (CDK2/Cyclin E complex) [nM] | IC50 [1] [nM]
1 | O=C(CNc1ccc(Cl)c(O)c1)Nc1nc2ccc3[nH]ncc3c2s1 [compound 6] | 26 | 1500
2 | CC(=O)Nc1cc(NCC(=O)Nc2nc3ccc4[nH]ncc4c3s2)ccc1Cl [compound 16] | 37 | 1200
3 | CC(C)(Nc1cccc(O)c1)C(=O)Nc1nc2ccc3[nH]ncc3c2s1 [compound 33] | 33 | 400
4 | CC(C)(Nc1ccc(Cl)cc1)C(=O)Nc1nc2ccc3[nH]ncc3c2s1 [compound 35] | 45 | 700
5 | CC(=O)Nc1cc(NC(C)(C)C(=O)Nc2nc3c(C(F)(F)F)cc4[nH]ncc4c3s2)ccc1Cl [compound 53] | 51 | 1300
6 | CNC(=O)c1cc(NC(C)(C)C(=O)Nc2nc3c(C(F)(F)F)cc4[nH]ncc4c3s2)ccc1Cl [compound 55] | 44 | 300
7 | CCNC(=O)c1cc(NC(C)(C)C(=O)Nc2nc3c(C(F)(F)F)cc4[nH]ncc4c3s2)ccc1F [compound 58] | 107 | 500
8 | CCNC(=O)c1cc(NC(C)(C)C(=O)Nc2nc3c(C(F)(F)F)cc4[nH]ncc4c3s2)ccc1Cl [compound 60] | 37 | 300
9 | CC(C)(Nc1ccc(Cl)c(C(=O)NC2CC2)c1)C(=O)Nc1nc2c(C(F)(F)F)cc3[nH]ncc3c2s1 [compound 75] | 131 | 500
10 | CC(=O)Nc1cc(NC(C)(C)C(=O)Nc2nc3c(C(F)(F)F)cc4[nH]ncc4c3s2)ccc1F [compound 81] | 93 | 800
11 | CC(C)(Nc1cccc(S(N)(=O)=O)c1)C(=O)Nc1nc2c(C(F)(F)F)cc3[nH]ncc3c2s1 [compound 82] | 15 | 200
12 | CC(C)(Nc1ccc(Cl)c(C(=O)NCC(N)=O)c1)C(=O)Nc1nc2c(C(F)(F)F)cc3[nH]ncc3c2s1 [compound 85] | 2.4 | 300
13 | CC(C)(Nc1ccc(Cl)c(O)c1)C(=O)Nc1nc2c(C(F)(F)F)cc3[nH]ncc3c2s1 [compound 95] | 23 | 400
14 | O=C(Nc1nc2ccc3[nH]ncc3c2s1)C1(Nc2ccc(Cl)cc2)CC1 [compound 117] | 19 | 500
15 | CCOC(=O)c1cc(NC2(C(=O)Nc3nc4ccc5[nH]ncc5c4s3)CC2)ccc1Cl [compound 118] | 116 | 2000
16 | CC(=O)Nc1cc(NC2(C(=O)Nc3nc4ccc5[nH]ncc5c4s3)CC2)ccc1F [compound 120] | 64 | 800
17 | CCC(=O)Nc1cc(NC2(C(=O)Nc3nc4ccc5[nH]ncc5c4s3)CC2)ccc1F [compound 121] | 110 | 500
18 | CNC(=O)c1cc(NC2(C(=O)Nc3nc4ccc5[nH]ncc5c4s3)CC2)ccc1Cl [compound 126] | 39 | 1500
19 | CC(=O)Nc1cc(NC(C)(C)C(=O)Nc2nc3ccc4[nH]ncc4c3s2)ccc1Cl [compound 128] | 28 | 900
20 | CCC(=O)Nc1cc(NC(C)(C)C(=O)Nc2nc3ccc4[nH]ncc4c3s2)ccc1Cl [compound 129] | 86 | 800
21 | O=C(Nc1nc2ccc3[nH]ncc3c2s1)C(CO)Nc1ccc(Cl)cc1 (stereo not shown) [compound 132] | 20 | 600
22 | CC(C)(Nc1ccc(Cl)c(C(N)=O)c1)C(=O)Nc1nc2c(C(F)(F)F)cc3[nH]ncc3c2s1 [compound 135] | 52 | 300
23 | CC(C)(Nc1ccc(Cl)c(C(=O)NCCCC(=O)O)c1)C(=O)Nc1nc2c(C(F)(F)F)cc3[nH]ncc3c2s1 [compound 144] | 249 | 3300
